Measured values published in USRE37781E1, “Substituted cyclic carbonyls and derivatives thereof useful as retroviral protease inhibitors” (DuPont Pharmaceuticals Company, priority 1991, dated 2002).
pKi: −log10 of the molar value. Converted amounts (≈) assume the structure as drawn. Where a name gives a salt, the structure may show the parent alone. Read-outs that look alike come from different tables or passages of the source.

What was measured:
HIV-1 (RF) in MT-2 cells = assay: microbe, parasite or virus in culture; assay type: cell-based
How it was run: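 HIV-1 laboratory strains (RF, MN, IIIB) grown in H9 cells in RPMI 1640 with 5% FCS; infections in MT-2 cells. Viral RNA quantified by hybridization with biotinylated gag/pol capture probes on streptavidin plates and alkaline phosphatase-conjugated reporter probes; BH10 gag-pol in vitro transcripts serve as RNA standards.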

[1] = molecular target: single-chain tethered dimer of HIV protease (Human immunodeficiency virus 1, UniProt P04585); assay: biochemical; assay type: biochemical; design: fused on or other part: A second copy of the same protease unit is joined to the first by a short peptide tether, giving one polypeptide
[2] = Human immunodeficiency virus 1, MT2, 48 h, Table 2d, class symbols, read-out: IC90
[3] = read-out: HPLC K1, Table 2d, class symbols
[4] = Human immunodeficiency virus 1, MT2, 48 h, Table 2d, HIV RNA assay, read-out: IC90
[5] = read-out: HPLC K1, Table 2d, HIV protease inhibition, HPLC method
[6] = Human immunodeficiency virus 1, MT2, HIV RNA assay, HIV-1 infected MT-2 cells, class symbols, read-out: IC90
[7] = Table 2d, HIV protease inhibition, HPLC method, read-out: HPLC K1

Compound	IC90 (HIV-1 (RF) in MT-2 cells; [2]) [µg/mL]	melting point [°C]	pKi [1, 3]	also measured
CONC(=O)c1ccc(CN2C(=O)N(Cc3ccc(C(=O)NOC)cc3)C(Cc3ccccc3)C(O)C(O)C2Cc2ccccc2)cc1 (stereo not shown) [10S]	< 10	186 to 189	> 8.00	
CON=Cc1cccc(CN2C(=O)N(Cc3cccc(C=NOC)c3)C(Cc3ccccc3)C(O)C(O)C2Cc2ccccc2)c1 (stereo not shown) [10D]	> 100	183 to 185	6.00 to 8.00	
NNC(=O)c1cccc(CN2C(=O)N(Cc3cccc(C(=O)NN)c3)C(Cc3ccccc3)C(O)C(O)C2Cc2ccccc2)c1 (stereo not shown) [Example 10M]	< 10	205	> 8.00	
O=C1N(Cc2cccc(OCCO)c2)C(Cc2ccccc2)C(O)C(O)C(Cc2ccccc2)N1Cc1cccc(OCCO)c1 (stereo not shown) (hydrate or solvate) [10Y]		245 to 247		
O=C(O)c1cccc(CN2C(=O)N(CC3CC3)C(Cc3ccccc3)C(O)C(O)C2Cc2ccccc2)c1 (stereo not shown) [15WQ]	< 10	135 to 137	> 8.00	
CCCNC(=O)c1cccc(CN2C(=O)N(Cc3cccc(C(=O)O)c3)C(Cc3ccccc3)C(O)C(O)C2Cc2ccccc2)c1 (stereo not shown) [15WO]	< 10	151 to 153	> 8.00	
OC1C(O)C(Cc2ccccc2)N(Cc2ccccc2)C(=S)N(Cc2ccccc2)C1Cc1ccccc1 (stereo not shown) [Example 27A]		92 to 94		IC90 (HIV-1 (RF) in MT-2 cells; Human immunodeficiency virus 1, MT2, Table 2q, read-out: IC90): < 10 µg/mL; pKi ([1]; read-out: HPLC Ki, Table 2q): > 8.00
Nc1cccc(CN2C(=O)N(Cc3cccc(-c4cc[nH]n4)c3)C(Cc3ccccc3)C(O)C(O)C2Cc2ccccc2)c1 (stereo not shown) [Example 15CE]		136 to 138		IC90 (HIV-1 (RF) in MT-2 cells; [4]): < 10 µg/mL; pKi [1, 5]: > 8.00
O=C(Nc1cccc(CN2C(=O)N(Cc3cccc(NC(=O)OCc4ccccc4)c3)C(Cc3ccccc3)C(O)C(O)C2Cc2ccccc2)c1)OCc1ccccc1 (stereo not shown) [15E]	> 100	190.7	6.00 to 8.00	
O=C1N(Cc2ccc(O)c(O)c2)C(Cc2ccccc2)C(O)C(O)C(Cc2ccccc2)N1CC1CC1 (stereo not shown) [15AG]		141		IC90 (HIV-1 (RF) in MT-2 cells; [4]): < 10 µg/mL; pKi [1, 5]: > 8.00
O=C1N(Cc2cccc(-c3cc[nH]n3)c2)C(Cc2ccccc2)C(O)C(O)C(Cc2ccccc2)N1Cc1cccc(-c2cc[nH]n2)c1 (stereo not shown) [Example 15YL]		208 to 210		IC90 (HIV-1 (RF) in MT-2 cells; [4]): < 10 µg/mL
O=C1N(CCCCCO)C(Cc2ccccc2)C(O)C(O)C(Cc2ccccc2)N1Cc1ccc2ccccc2c1 (stereo not shown) [Example 15VH]	< 10	84.6	> 8.00	
O=C1N(Cc2ccoc2)C(Cc2ccccc2)C(O)C(O)C(Cc2ccccc2)N1Cc1ccoc1 (stereo not shown) [Example 15FN]		152.5 to 153		IC90 (HIV-1 (RF) in MT-2 cells; Human immunodeficiency virus 1, MT2, 48 h, HIV RNA assay, HIV-1 infected MT-2 cells, Table 2d, read-out: IC90): < 10 µg/mL; pKi ([1]; read-out: HPLC K1, HIV protease inhibition, HPLC method, Table 2d): > 8.00
CC(C)CCCC(C)CCN1C(=O)N(CCC(C)CCCC(C)C)C(Cc2ccccc2)C(O)C(O)C1Cc1ccccc1 (stereo not shown) [Example 1P]		80 to 82		
O=C1N(Cc2ccc(CO)cc2)C(Cc2ccccc2)C(O)C(O)C(Cc2ccccc2)N1Cc1cccc([N+](=O)[O-])c1 (stereo not shown) [15J]	< 10	92	> 8.00	
O=S1(=O)N(Cc2ccc(CO)cc2)C(Cc2ccccc2)C(O)C(O)C(Cc2ccccc2)N1Cc1ccc(CO)cc1 (stereo not shown) [23B]		189 to 190		IC90 (HIV-1 (RF) in MT-2 cells; Human immunodeficiency virus 1, MT2, Table 2m, read-out: IC90): < 10 µg/mL; pKi ([1]; read-out: HPLC Ki, Table 2m): > 8.00
O=C1N(Cc2cccc(-c3cnc[nH]3)c2)C(Cc2ccccc2)C(O)C(O)C(Cc2ccccc2)N1Cc1cccc(-c2cnc[nH]2)c1 (stereo not shown) [Example 15BK]		171 to 175		IC90 (HIV-1 (RF) in MT-2 cells; [4]): < 10 µg/mL; pKi [1, 5]: > 8.00
N#Cc1cccc(CN2C(=O)N(Cc3cccc(C=O)c3)C(Cc3ccccc3)C(O)C(O)C2Cc2ccccc2)c1 (stereo not shown) [10C]	< 10	189 to 191	> 8.00	
NC(=NO)c1cccc(CN2C(=O)N(Cc3ccc4ccccc4c3)C(Cc3ccccc3)C(O)C(O)C2Cc2ccccc2)c1 (stereo not shown) [15AN]		192 to 193		IC90 (HIV-1 (RF) in MT-2 cells; [4]): < 10 µg/mL; pKi [1, 5]: > 8.00
O=C1N(Cc2cccnc2)C(Cc2ccccc2)C(O)C(O)C(Cc2ccccc2)N1Cc1cccc(-c2cc[nH]n2)c1 (stereo not shown) [Example 15BU]		133 to 136		IC90 (HIV-1 (RF) in MT-2 cells; [4]): < 10 µg/mL; pKi [1, 5]: > 8.00
N#CN=C1N(Cc2cccc([N+](=O)[O-])c2)[C@H](Cc2ccccc2)[C@H](O)[C@@H](O)[C@@H](Cc2ccccc2)N1Cc1cccc([N+](=O)[O-])c1		114		
CC1C(O)C(O)C(C)N(Cc2ccc3ccccc3c2)C(=O)N1Cc1ccc2ccccc2c1 (stereo not shown) [Example 16H]		236 to 238		pKi ([1]; read-out: K4 HPLC, Table 2e): < 6.00
CNC(=O)Nc1cccc(CN2C(=O)N(Cc3cccc(NC(=O)NC)c3)C(Cc3ccccc3)C(O)C(O)C2Cc2ccccc2)c1 (stereo not shown) [15L]		173.7	> 8.00	

Compound	IC90 (HIV-1 (RF) in MT-2 cells; [2]) [µg/mL]	melting point [°C]	pKi [1, 3]	also measured
O=C1N(Cc2cccc(-c3cc[nH]n3)c2)C(Cc2ccccc2)C(O)C(O)C(Cc2ccccc2)N1Cc1cccc(-c2cc[nH]n2)c1 (stereo not shown) (as salt: HCl) [Example 15YM]		195 to 197		
O=C1N(Cc2ccccn2)C(Cc2ccccc2)C(O)C(O)C(Cc2ccccc2)N1Cc1ccccn1 (stereo not shown) [Example 3M]		151 to 153		IC90 (HIV-1 (RF) in MT-2 cells; [6]): 10 to 100 µg/mL (≈ 19.7 to 197 µM)
CNc1cccc(CN2C(=O)N(Cc3ccc(CO)cc3)C(Cc3ccccc3)C(O)C(O)C2Cc2ccccc2)c1 (stereo not shown) (as salt: HCl) [15M]		107.6		
O=C1N(Cc2cccc(OCc3ccccc3)c2)C(Cc2ccccc2)C(O)C(O)C(Cc2ccccc2)N1Cc1cccc([N+](=O)[O-])c1 (stereo not shown) (hydrate or solvate) [11P]		173 to 176		
O=C1N(Cc2cccc(-c3ncc[nH]3)c2)C(Cc2ccccc2)C(O)C(O)C(Cc2ccccc2)N1Cc1cccc(-c2ncc[nH]2)c1 (stereo not shown) (as salt: hydrochloride) [Example 15BS]		191 to 194		
Cc1ccc(CN2C(=O)N(Cc3ccc(CO)cc3)C(Cc3ccccc3)C(O)C(O)C2Cc2ccccc2)cc1 (stereo not shown) [15EI]		174 to 175		pKi [1, 5]: > 8.00
CCCCCCC1C(O)C(O)C(CCCCCC)N(Cc2ccccc2)C(=O)N1Cc1ccccc1 (stereo not shown) [Example 16AI]		79 to 82		pKi ([1]; read-out: K4 HPLC, Table 2e): 6.00 to 8.00
CC(=NO)c1cccc(CN2C(=O)N(Cc3cccc(C(C)=NO)c3)C(Cc3ccccc3)C(O)C(O)C2Cc2ccccc2)c1 (stereo not shown) [Example 9Q]	< 10	200 to 202		
Nc1cccc(CN2C(=O)N(CC3CC3)C(Cc3ccccc3)C(O)C(O)C2Cc2ccccc2)c1 (stereo not shown) (as salt: HCl) [15G]		108.9		
O=C1N(Cc2cccc3ccccc23)C(Cc2ccccc2)C(O)C(O)C(Cc2ccccc2)N1Cc1cccc2ccccc12 (stereo not shown) [Example 3T]		231 to 233		IC90 (HIV-1 (RF) in MT-2 cells; [6]): > 100 µg/mL
CCCCCC1C(O)C(O)C(CCCCC)N(Cc2ccccc2)C(=O)N1Cc1ccccc1 (stereo not shown) [Example 16AH]		94 to 97		pKi ([1]; read-out: K4 HPLC, Table 2e): 6.00 to 8.00
O=C1N(Cc2cccc(CNOCc3ccccc3)c2)C(Cc2ccccc2)C(O)C(O)C(Cc2ccccc2)N1Cc1cccc(CNOCc2ccccc2)c1 (stereo not shown) [Example 9F]				IC90 (HIV-1 (RF) in MT-2 cells; Table 2d, class symbols): + (+=>100 μg/mL); pKi ([1]; Table 2d, class symbols, read-out: HPLC K1): 6.00 to 8.00
CCOC(=O)c1cccc(CN2C(=O)N(CCCCCO)C(Cc3ccccc3)C(O)C(O)C2Cc2ccccc2)c1 (stereo not shown) [Example 15VY]	< 10		> 8.00	
O=C1N(CCCCC(O)CO)C(Cc2ccccc2)C(O)C(O)C(Cc2ccccc2)N1CCCCC(O)CO (stereo not shown) [Example 13I]	> 100		> 8.00	
NCC(=O)Nc1cccc(CN2C(=O)N(Cc3cccc(NC(=O)CN)c3)C(Cc3ccccc3)C(O)C(O)C2Cc2ccccc2)c1 (stereo not shown) (as salt: HCl) [15R]		233.7		
O=C1N(Cc2ccc3[nH]cnc3c2)C(Cc2ccccc2)C(O)C(O)C(Cc2ccccc2)N1Cc1ccc2[nH]cnc2c1 (stereo not shown) [15CS]				IC90 (HIV-1 (RF) in MT-2 cells; Table 2d, HIV RNA assay): ++ (++=10 to 100 μg/mL); pKi [1, 7]: 6.00 to 8.00
O=C1N(Cc2cccc(O)c2)C(Cc2ccccc2)C(O)C(O)C(Cc2ccccc2)N1Cc1ccc2[nH]nnc2c1 (stereo not shown) [15DR]				IC90 (HIV-1 (RF) in MT-2 cells; Table 2d, HIV RNA assay): +++ (+++=<10 μg/mL); pKi [1, 7]: > 8.00
CCCNC(=NO)c1cccc(CN2C(=O)N(Cc3cccc(C(=NO)NCCC)c3)C(Cc3ccccc3)C(O)C(O)C2Cc2ccccc2)c1 (stereo not shown) [15BA]				IC90 (HIV-1 (RF) in MT-2 cells; Table 2d, HIV RNA assay): +++ (+++=<10 μg/mL); pKi [1, 7]: > 8.00
O=S1(=O)N(Cc2ccccc2)C(Cc2ccccc2)C(O)C(O)C(Cc2ccccc2)N1Cc1ccccc1 (stereo not shown) [23I]				IC90 (HIV-1 (RF) in MT-2 cells; Table 2m): +++ (+++=<10 μg/mL); pKi ([1]; Table 2m, read-out: HPLC Ki): 6.00 to 8.00
O=C1N(CCCCCCCO)C(Cc2ccccc2)C(O)C(O)C(Cc2ccccc2)N1CCCCCCCO (stereo not shown) [Example 12P]	< 10		6.00 to 8.00	
O=C1N(Cc2ccc(CO)cc2)C(Cc2ccccc2)C(O)C(O)C(Cc2ccccc2)N1Cc1cccnc1 (stereo not shown) [Example 15XE]				IC90 (HIV-1 (RF) in MT-2 cells; [4]): < 10 µg/mL; pKi [1, 5]: > 8.00
NC(=O)c1cccc(CN2C(=O)N(Cc3cccc(C(N)=O)c3)C(Cc3ccccc3)C(O)C(O)C2Cc2ccccc2)c1 (stereo not shown) [10G]	< 10		> 8.00	
CN(C)P1(=O)N(CC2CC2)[C@H](Cc2ccccc2)[C@H](O)[C@@H](O)[C@@H](Cc2ccccc2)N1CC1CC1 (stereo partly shown) [28G]				IC90 (HIV-1 (RF) in MT-2 cells; Table 2r): ++ (++=10 to 100 μg/mL); pKi ([1]; Table 2r, read-out: Ki HPLC): < 6.00
